Reference: patent US20160122307A1, “PERHYDROQUINOXALINE DERIVATIVES” (DR. AUGUST WOLFF GMBH & CO. KG ARZNEIMITTEL, priority 2013, published 2016)
Where two headings read alike, the source gives them in different places.

Molecular target: Human opiate κ receptors (Homo sapiens, UniProt P41145)
Experiment: κ opioid receptor functional assay, [35S]GTPγS binding (assay C)
Type: biochemical
Settings: for activation at 1 µM: 0.5 h, read-out: % activation functional assay at 1 μM
[1] = read-out: EC50 (nM) [35S]GTPγS binding

Sequence of Human opiate κ receptors (P41145 whole entry): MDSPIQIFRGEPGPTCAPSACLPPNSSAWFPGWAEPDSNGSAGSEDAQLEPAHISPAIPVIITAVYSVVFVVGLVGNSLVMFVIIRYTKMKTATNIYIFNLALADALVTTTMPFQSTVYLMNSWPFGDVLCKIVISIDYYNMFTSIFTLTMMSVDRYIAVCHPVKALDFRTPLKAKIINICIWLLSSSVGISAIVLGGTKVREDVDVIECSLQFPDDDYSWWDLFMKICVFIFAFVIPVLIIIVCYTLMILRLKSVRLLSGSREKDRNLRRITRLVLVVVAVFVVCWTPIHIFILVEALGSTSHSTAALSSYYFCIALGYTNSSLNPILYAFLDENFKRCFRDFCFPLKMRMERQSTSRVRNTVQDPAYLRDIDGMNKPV

SMILES	activation at 1 µM [%]	EC50 (GTPγS EC50 (nM)) [nM]	further results
COC(=O)N1CCN(C(=O)Cc2ccc(Cl)c(Cl)c2)C2C(N3CCC(O)C3)CCCC21 (stereo not drawn) [Example 11]	92	10 to 100	activation (% of control) at 1 μM (1 µM): 92 % of control; EC50 (EC50 (nM) [35S]GTPγS binding): 11.7 nM
O=C(C=Cc1ccoc1)N1CCN(C(=O)Cc2ccc(Cl)c(Cl)c2)C2C(N3CCCC3)CCCC21 (racemic) [Example 79]	102	–	–
O=C(c1ccccc1)N1CCN(C(=O)Cc2ccc(Cl)c(Cl)c2)C2C(N3CCC(O)C3)CCCC21 (stereo not drawn) [R, reference compound]	–	–	activation (% of control) at 1 μM: 63 % of control
O=C(Cc1ccc(Cl)c(Cl)c1)N1CCN(C(=O)NCc2ccccc2)[C@H]2CCC[C@H](N3CCCC3)[C@H]21 [Example 100]	105	< 10	–
O=C(Cc1ccc(Cl)c(Cl)c1)N1CCN(Cc2cccnc2)[C@@H]2CCC[C@H](N3CCCC3)[C@H]21 (racemic) [Y, reference compound]	–	–	activation (% of control) at 1 μM: 96 % of control; EC50 (EC50 (nM) [35S]GTPγS binding): 34 nM
O=C(O)CNC(=O)N1CCN(C(=O)Cc2ccc(Cl)c(Cl)c2)C2C(N3CCCC3)CCCC21 (racemic) [Example 77]	98	10 to 100	–
COC(=O)N1CCN(C(=O)Cc2ccc(Cl)c(Cl)c2)[C@H]2[C@H](N3CCCC3)CCC[C@@H]21 (single isomer, unassigned) [Reference compound C, reference compound]	85	–	–
COC(=O)N1CCN(C(=O)Cc2ccc(C(F)(F)F)c(Cl)c2)C2C(N3CCCC3)CCCC21 (racemic) [Example 50]	118	< 10	–
COC(=O)N1CCN(C(=O)Cc2cccc(C(F)(F)F)c2)[C@@H]2[C@@H](N3CC[C@H](O)C3)CCC[C@@H]21 [Example 142]	106	10 to 100	–
COC(=O)N1CCN(C(=O)Cc2ccc(OC)c(F)c2)C2C(N3CCCC3)CCCC21 (racemic) [Example 22]	78	100 to 1000	–
COC(=O)N1CCN(C(=O)Cc2ccc(Cl)cc2)C2C(N3CCCC3)CCCC21 (racemic) [Example 47]	101	< 10	–
COC(=O)N1CCN(C(=O)Cc2ccc(Cl)c(Cl)c2)[C@H]2[C@H]1CCC[C@@H]2N1CCCC1 (single isomer, unassigned) [Reference compound D, reference compound]	92	–	–
O=C(c1cccs1)N1CCN(C(=O)Cc2ccc(Cl)c(Cl)c2)C2C(N3CCCC3)CCCC21 (racemic) [Example 30]	110	–	–
COC(=O)COC(=O)N1CCN(C(=O)Cc2ccc(Cl)c(Cl)c2)[C@@H]2[C@@H](N3CC[C@@H](O)C3)CCC[C@@H]21 [Example 105]	116	< 10	–
COC(=O)N1CCN(C(=O)Cc2ccc3c(c2)CCCC3)C2C(N3CCCC3)CCCC21 (racemic) [Example 6]	97	10 to 100	–
CC(C)(C)OC(=O)N1CCN(C(=O)Cc2ccc(Cl)c(Cl)c2)[C@@H]2[C@@H](N3CCCC3)CCC[C@@H]21 (racemic) [Example 24]	105	< 10	–
COC(=O)CNC(=O)N1CCN(C(=O)Cc2ccc(Cl)c(Cl)c2)C2C(N3CCCC3)CCCC21 (racemic) [Example 75]	113	< 10	–
COC(=O)N1CCN(C(=O)Cc2ccc(C(F)(F)F)cc2)C2C1CCCC2N(C)C(C)C (racemic) [Example 14]	104	< 10	–
O=C(c1ccco1)N1CCN(C(=O)Cc2ccc(Cl)c(Cl)c2)C2C(N3CCCC3)CCCC21 (racemic) [Example 29]	96	–	–
COC(=O)N1CCN(C(=O)Cc2ccc(C(F)(F)F)cc2)[C@@H]2[C@@H](N3CC[C@H](O)C3)CCC[C@@H]21 [Example 139]	104	< 10	–
COC(=O)COC(=O)N1CCN(C(=O)Cc2ccc(Cl)c(Cl)c2)[C@@H]2[C@@H](N3CCCC3)CCC[C@@H]21 [Example 101]	99	< 10	–
O=C(C1CC1)N1CCN(C(=O)Cc2ccc(Cl)c(Cl)c2)C2C(N3CCCC3)CCCC21 (racemic) [Example 28]	111	< 10	–
O=C(C1COC1)N1CCN(C(=O)Cc2ccc(Cl)c(Cl)c2)C2C(N3CCCC3)CCCC21 (racemic) [Example 54]	104	10 to 100	–
CCN(C)[C@H]1CCC[C@H]2[C@@H]1N(C(=O)Cc1ccc(Cl)c(Cl)c1)CCN2C(=O)OC [Example 91]	106	< 10	–

SMILES	activation at 1 µM [%]	EC50 (GTPγS EC50 (nM)) [nM]	further results
O=C(C1CCNC1)N1CCN(C(=O)Cc2ccc(Cl)c(Cl)c2)C2C(N3CCCC3)CCCC21 (racemic) [Example 78]	64	100 to 1000	–
COC(=O)N1CCN(C(=O)Cc2ccc(Cl)c(Cl)c2)[C@@H]2[C@@H](N3CCCC3)CCC[C@@H]21 (racemic) [Example 1]	109	–	activation (% of control) at 1 μM: 109 % of control
COC(=O)N1CCN(C(=O)Cc2ccc(Cl)c(Cl)c2)C2C1CCCC2N(C)C(C)C (racemic) [Example 13]	98	< 10	–
COC(=O)N1CCN(C(=O)Cc2ccc(Cl)c(Cl)c2)C2C(N3CCC(O)C3)CCCC21 (stereo not drawn) [S, reference compound]	–	–	activation (% of control) at 1 μM (1 µM): 91 % of control; EC50 [1]: 85 nM
COC(=O)N1CCN(C(=O)Cc2ccc(Cl)c(F)c2)[C@@H]2[C@@H](N3CCCC3)CCC[C@@H]21 [Example 94]	103	10 to 100	–
O=C(Cc1ccc(Cl)c(Cl)c1)N1CCN(Cc2cccnc2)C2CCCC(N3CCCC3)C21 (racemic) [Example 48]	100	< 10	activation (% of control) at 1 μM: 100 % of control; EC50 (EC50 (nM) [35S]GTPγS binding): 4.99 nM
COC(=O)c1ccc(C(=O)N2CCN(C(=O)Cc3ccc(Cl)c(Cl)c3)C3C(N4CCCC4)CCCC32)nc1 (racemic) [Example 85]	101	–	–
CC(C)C(=O)N1CCN(C(=O)Cc2ccc(Cl)c(Cl)c2)C2C(N3CCCC3)CCCC21 (racemic) [Example 26]	119	< 10	–
CCC(=O)N1CCN(C(=O)Cc2ccc(Cl)c(Cl)c2)C2C(N3CCCC3)CCCC21 (stereo not drawn) [N, reference compound]	–	–	activation (% of control) at 1 μM: 63 % of control; EC50 [1]: 600 nM
COC(=O)N1CCN(C(=O)Cc2ccc(Cl)c(F)c2)C2C(N3CCC(O)C3)CCCC21.Cl (stereo not drawn) [Example 115]	–	–	% activation functional assay at 1 μM: 103%; EC50 (read-out: GTPγS EC50): 10 to 100 nM
COC(=O)N1CCN(C(=O)Cc2ccc(Cl)c(Cl)c2)C2C(N3CCC(O)CC3)CCCC21 (racemic) [Example 88]	–	–	% activation functional assay at 1 μM: 107%; EC50 (read-out: GTPγS EC50): < 10 nM
CS(=O)(=O)N1CCN(C(=O)Cc2ccc(Cl)c(Cl)c2)[C@@H]2[C@@H](N3CCCC3)CCC[C@@H]21 [Example 102]	106	< 10	–
CC(C)OC(=O)COC(=O)N1CCN(C(=O)Cc2ccc(Cl)c(Cl)c2)[C@@H]2[C@@H](N3CCCC3)CCC[C@@H]21 [Example 107]	104	< 10	–
O=C(Cc1ccc(Cl)c(Cl)c1)N1CCN(Cc2cnc[nH]2)C2CCCC(N3CCCC3)C21 (stereo not drawn) [AA, reference compound]	–	–	activation (% of control) at 1 μM: 89 % of control; EC50 [1]: 56 nM
COC(=O)N1CCN(C(=O)Cc2ccc(Cl)c(Cl)c2)[C@@H]2[C@@H](N(C)C)CCC[C@@H]21 [Example 90]	96	< 10	–
COC(=O)CC(=O)N1CCN(C(=O)Cc2ccc(Cl)c(Cl)c2)C2C(N3CCCC3)CCCC21 (racemic) [Example 36]	93	< 10	activation (% of control) at 1 μM: 93 % of control; EC50 (EC50 (nM) [35S]GTPγS binding): 9.74 nM
COC(=O)c1cccc(C(=O)N2CCN(C(=O)Cc3ccc(Cl)c(Cl)c3)C3C(N4CCCC4)CCCC32)c1 (racemic) [Example 86]	86	–	–
COC(=O)N1CCN(C(=O)Cc2ccc(Cl)c(Cl)c2)[C@@H]2[C@@H](N3CC[C@H](O)C3)CCC[C@@H]21 [Example 97]	113	< 10	–
O=C(c1ccccc1)N1CCN(C(=O)Cc2ccc(Cl)c(Cl)c2)C2C(N3CCCC3)CCCC21 (stereo not drawn) [L, reference compound]	–	–	activation (% of control) at 1 μM: 74 % of control
COC(=O)N1CCN(C(=O)Cc2ccc(C(F)(F)F)c(Cl)c2)[C@@H]2[C@@H](N3CCCC3)CCC[C@@H]21 [Example 93]	101	< 10	–
O=C(c1ncccn1)N1CCN(C(=O)Cc2ccc(Cl)c(Cl)c2)C2C(N3CCCC3)CCCC21 (racemic) [Example 82]	97	–	–
CC(C)NC(=O)N1CCN(C(=O)Cc2ccc(Cl)c(F)c2)C2C(N3CCC(O)C3)CCCC21.Cl (stereo not drawn) [Example 119]	–	–	% activation functional assay at 1 μM: 102%; EC50 (read-out: GTPγS EC50): 10 to 100 nM
O=C(Cc1ccc(Cl)c(Cl)c1)N1CCN(Cc2cccnc2)C2CCCC(N3CCC(O)C3)C21 (mixture of isomers) [AC, reference compound]	–	–	activation (% of control) at 1 μM: 102 % of control; EC50 (EC50 (nM) [35S]GTPγS binding): 77 nM
